Experimental data published in PubChem BioAssay (NCI).
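Assay format: 96-well plates, 48-hour exposure. TGI is the concentration that stops growth completely.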

Key:
Test in all cases: DTP human tumour cell line panel, 48 h
MALME-3M melanoma = system: MALME-3M melanoma
NCI-H460 lung = system: NCI-H460 lung
786-0 renal = system: 786-0 renal
LOX IMVI melanoma = system: LOX IMVI melanoma
RPMI-8226 leukemia = system: RPMI-8226 leukemia
CCRF-CEM leukemia = system: CCRF-CEM leukemia
SF-268 CNS = system: SF-268 CNS
UO-31 renal = system: UO-31 renal
SNB-78 CNS = system: SNB-78 CNS
SF-539 CNS = system: SF-539 CNS
KM20L2 colon = system: KM20L2 colon
U251 CNS = system: U251 CNS
DMS 273 small cell lung = system: DMS 273 small cell lung
HOP-62 NSCLC = system: HOP-62 NSCLC
SNB-75 CNS = system: SNB-75 CNS
DLD-1 colon = system: DLD-1 colon
XF 498 CNS = system: XF 498 CNS
NCI-H23 lung = system: NCI-H23 lung
SK-OV-3 ovarian = system: SK-OV-3 ovarian
OVCAR-3 ovarian = system: OVCAR-3 ovarian
ACHN renal = system: ACHN renal
A498 renal = system: A498 renal
SK-MEL-28 melanoma = system: SK-MEL-28 melanoma
HOP-92 NSCLC = system: HOP-92 NSCLC
HOP-18 NSCLC = system: HOP-18 NSCLC
UACC-257 melanoma = system: UACC-257 melanoma
DMS 114 small cell lung = system: DMS 114 small cell lung
OVCAR-5 ovarian = system: OVCAR-5 ovarian
HL-60(TB) leukemia = system: HL-60(TB) leukemia
COLO 205 colon = system: COLO 205 colon
LXFL 529 NSCLC = system: LXFL 529 NSCLC
KM12 colon = system: KM12 colon
SF-295 CNS = system: SF-295 CNS
A549 NSCLC = system: A549 NSCLC
M19-MEL melanoma = system: M19-MEL melanoma
NCI-H522 lung = system: NCI-H522 lung
SW-620 colon = system: SW-620 colon
EKVX NSCLC = system: EKVX NSCLC
RXF 393 renal = system: RXF 393 renal
RXF-631 renal = system: RXF-631 renal
HCC-2998 colon = system: HCC-2998 colon
MOLT-4 leukemia = system: MOLT-4 leukemia
SK-MEL-2 melanoma = system: SK-MEL-2 melanoma
OVCAR-8 ovarian = system: OVCAR-8 ovarian
HT29 colon = system: HT29 colon
K-562 leukemia = system: K-562 leukemia
TK-10 renal = system: TK-10 renal
HCT-116 colon = system: HCT-116 colon
IGROV1 ovarian = system: IGROV1 ovarian
UACC-62 melanoma = system: UACC-62 melanoma
SNB-19 CNS = system: SNB-19 CNS
OVCAR-4 ovarian = system: OVCAR-4 ovarian
NCI-H226 lung = system: NCI-H226 lung
SK-MEL-5 melanoma = system: SK-MEL-5 melanoma
SN12C renal = system: SN12C renal
M14 melanoma = system: M14 melanoma
CAKI-1 renal = system: CAKI-1 renal
HCT-15 colon = system: HCT-15 colon

Measured: TGI

COc1cccc2c1OC1Sc3ccccc3-c3nn(-c4ccccc4)c-2c31 (centres undefined)
not listed: UACC-62 melanoma | SNB-19 CNS | OVCAR-4 ovarian | NCI-H226 lung | SK-MEL-5 melanoma | SN12C renal | M14 melanoma | CAKI-1 renal | HCT-15 colon
> 100 µM: all other assays above

CC(C)OP(=S)(NC(=S)c1ccccc1)OC(C)C
not listed: RPMI-8226 leukemia | HOP-62 NSCLC | HOP-18 NSCLC | HL-60(TB) leukemia | M19-MEL melanoma | NCI-H522 lung | RXF 393 renal | RXF-631 renal
> 100 µM: all other assays above
